Molecular target: CSF-1R (FMS) (Homo sapiens (Human), UniProt P07333)
Experiment: SelectScreen Z'-LYTE kinase assay, Assay 336 for CSF-1R (FMS)
Type: biochemical
Conditions: Z'-LYTE activity assay, 500 μM ATP (Km app); read-out: CSF-1R Enzyme IC50

Chain of CSF-1R (FMS) (P07333 20-972): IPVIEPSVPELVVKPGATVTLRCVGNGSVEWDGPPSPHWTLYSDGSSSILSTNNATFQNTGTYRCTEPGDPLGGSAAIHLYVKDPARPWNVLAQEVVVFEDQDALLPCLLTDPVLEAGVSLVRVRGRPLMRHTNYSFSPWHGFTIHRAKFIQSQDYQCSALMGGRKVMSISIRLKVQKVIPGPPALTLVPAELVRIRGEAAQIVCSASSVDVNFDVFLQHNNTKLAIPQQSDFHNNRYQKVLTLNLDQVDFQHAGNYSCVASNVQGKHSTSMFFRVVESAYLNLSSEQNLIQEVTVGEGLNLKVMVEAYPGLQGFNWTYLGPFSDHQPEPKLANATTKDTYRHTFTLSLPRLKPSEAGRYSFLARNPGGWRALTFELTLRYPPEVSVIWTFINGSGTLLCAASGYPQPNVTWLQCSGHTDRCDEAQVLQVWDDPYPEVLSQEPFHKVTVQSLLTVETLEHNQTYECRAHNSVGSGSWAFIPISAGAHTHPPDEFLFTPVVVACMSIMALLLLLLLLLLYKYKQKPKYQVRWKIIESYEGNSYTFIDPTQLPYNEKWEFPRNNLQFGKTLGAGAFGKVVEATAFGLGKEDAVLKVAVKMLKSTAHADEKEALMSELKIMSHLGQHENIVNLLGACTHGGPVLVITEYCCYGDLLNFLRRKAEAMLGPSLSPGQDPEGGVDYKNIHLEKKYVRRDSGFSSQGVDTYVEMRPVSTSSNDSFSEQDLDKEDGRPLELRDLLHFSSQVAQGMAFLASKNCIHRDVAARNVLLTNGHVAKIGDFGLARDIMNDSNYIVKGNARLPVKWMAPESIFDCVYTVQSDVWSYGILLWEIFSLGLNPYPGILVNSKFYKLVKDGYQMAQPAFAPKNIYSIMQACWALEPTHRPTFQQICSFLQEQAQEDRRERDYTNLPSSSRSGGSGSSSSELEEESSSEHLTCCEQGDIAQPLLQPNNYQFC

| IC50 [µM] | Compound |
| --- | --- |
| < 0.1 | COc1ccc(COc2ccc(Oc3ccc4c(=O)c5cc(C)cc(OCCN(C)C)c5oc4c3)cn2)cc1 [Example 10, 4-(2-(Dimethylamino)ethoxy)-6-((6-((4-methoxybenzyl)oxy)pyridin-3-yl)oxy)-2-methyl-9H-xanthen-9-one] |
| < 0.1 | COc1ccc(COc2ccc(Oc3ccc4c(=O)c5cc(C)cc(OCCN(C)C)c5oc4c3)cn2)cn1 [Example 11, 4-(2-(Dimethylamino)ethoxy)-6-((6-((6-methoxypyridin-3-yl)methoxy)pyridin-3-yl)oxy)-2-methyl-9H-xanthen-9-one] |
| < 0.1 | COc1ccc(COc2ncc(Oc3ccc4c(=O)c5cc(C)cc(OCCN(C)C)c5oc4c3)cc2OC)cc1 [Example 12, 4-(2-(Dimethylamino)ethoxy)-6-((5-methoxy-6-((4-methoxybenzyl)oxy)pyridin-3-yl)oxy)-2-methyl-9H-xanthen-9-one] |
| < 0.1 | COc1ccc(CNc2ccc(Oc3ccc4c(=O)c5cc(C)cc(OCCN(C)C)c5oc4c3)cn2)cc1 [Example 14, 4-(2-(Dimethylamino)ethoxy)-6-((6-((4-methoxybenzyl)amino)pyridin-3-yl)oxy)-2-methyl-9H-xanthen-9-one] |
| < 0.1 | COc1ccc(CCc2ccc(Oc3ccc4c(=O)c5cc(C)cc(OCCN(C)C)c5oc4c3)cn2)cc1 [Example 18, 4-(2-(Dimethylamino)ethoxy)-6-((6-(4-methoxyphenethyl)pyridin-3-yl)oxy)-2-methyl-9H-xanthen-9-one] |
| < 0.1 | Cc1cc(OCCN(C)C)c2oc3cc(Oc4ccc(CCC(=O)Nc5cccnc5)nc4)ccc3c(=O)c2c1 [Example 21, 3-(5-((5-(2-(Dimethylamino)ethoxy)-7-methyl-9-oxo-9H-xanthen-3-yl)oxy)pyridin-2-yl)-N-(pyridin-3-yl)propanamide] |
| < 0.1 | Cc1cc(OCCN(C)C)c2oc3cc(Oc4ccc(CCNC(=O)C5CCCC5)nc4)ccc3c(=O)c2c1 [Example 26, N-(2-(5-((5-(2-(Dimethylamino)ethoxy)-7-methyl-9-oxo-9H-xanthen-3-yl)oxy)pyridin-2-yl)ethyl)cyclopentanecarboxamide] |
| < 0.1 | Cc1cc(OCCN)c2oc3cc(Oc4ccc(CCC(=O)NC5CCCC5)nc4)ccc3c(=O)c2c1 [Example 28, 3-(5-((5-(2-Aminoethoxy)-7-methyl-9-oxo-9H-xanthen-3-yl)oxy)pyridin-2-yl)-N-cyclopentylpropanamide] |
| 1 to 10 | CN(C)CCOc1cc(Cl)cc2c(=O)c3ccc(Oc4ccccc4)cc3oc12 [Example 39, 2-Chloro-4-[2-(dimethylamino)ethoxy]-6-phenoxy-9H-xanthen-9-one] |
| 0.1 to 1 | COc1ccc(CCc2ccc(Oc3ccc4c(=O)c5cc(Cl)cc(OCCN(C)C)c5oc4c3)cn2)cc1 [Example 41, 2-Chloro-4-[2-(dimethylamino)ethoxy]-6-({6-[2-(4-methoxyphenyl)ethyl]-3-pyridinyl}oxy)-9H-xanthen-9-one] |
| 0.1 to 1 | Cc1cc(OCCN(C)C)c2sc3cc(Oc4ccccc4)ccc3c(=O)c2c1 [Example 48, 4-(2-(Dimethylamino)ethoxy)-2-methyl-6-phenoxy-9H-thioxanthen-9-one] |
| < 0.1 | COc1ccc(CCc2ccc(Oc3ccc4c(=O)c5cc(C)cc(OCCN(C)C)c5sc4c3)cn2)cc1 [Example 50, 4-(2-(Dimethylamino)ethoxy)-6-((6-(4-methoxyphenethyl)pyridin-3-yl)oxy)-2-methyl-9H-thioxanthen-9-one] |
| 1 to 10 | Cc1ccc2c(c1)c(=O)c1ccc(Sc3ccccc3)cc1n2CCCN(C)C [Example 52, 10-(3-(Dimethylamino)propyl)-2-methyl-6-(phenylthio)acridin-9(10H)-one] |
| < 0.1 | Cc1cc(OCCN2C[C@@H](C)N[C@@H](C)C2)c2oc3cc(Oc4ccc(CCC(=O)NC5CCCC5)nc4)ccc3c(=O)c2c1 [Example 61, N-Cyclopentyl-3-(5-((5-(2-((3S,5R)-3,5-dimethylpiperazin-1-yl)ethoxy)-7-methyl-9-oxo-9H-xanthen-3-yl)oxy)pyridin-2-yl)propanamide] |

Second part, the compound before the results:

| Compound | IC50 [µM] |
| --- | --- |
| COc1ccc(CCc2ccc(Oc3ccc4c(=O)c5cccc(OCCN(C)C)c5oc4c3)cn2)cc1 [Example 3, 5-[2-(Dimethylamino)ethoxy]-3-({6-[2-(4-methoxyphenyl)ethyl]-3-pyridinyl}oxy)-9H-xanthen-9-one] | 0.1 to 1 |
| COc1ccc(COc2ccc(Oc3ccc4c(=O)c5cc(C)cc(OCCN(C)C)c5oc4c3)cc2OC)cc1 [Example 7] | < 0.1 |
| Cc1cc(OCCN(C)C)c2oc3cc(Oc4ccc(OCc5ccc(C(F)(F)F)nc5)nc4)ccc3c(=O)c2c1 [Example 13, 4-(2-(Dimethylamino)ethoxy)-2-methyl-6-((6-((6-(trifluoromethyl)pyridin-3-yl)meth-oxy)pyridin-3-yl)oxy)-9H-xanthen-9-one] | < 0.1 |
| COc1ccc(CNc2ccc(Oc3ccc4c(=O)c5cc(C)cc(OCCN(C)C)c5oc4c3)cn2)cn1 [Example 16, 4-(2-(Dimethylamino)ethoxy)-6-((6-(((6-methoxypyridin-3-yl)methyl)amino)pyridin-3-yl)oxy)-2-methyl-9H-xanthen-9-one] | < 0.1 |
| Cc1cc(OCCN(C)C)c2oc3cc(Oc4ccc(CCC(=O)NC5CCCC5)nc4)ccc3c(=O)c2c1 [Example 22, N-Cyclopentyl-3-(5-((5-(2-(dimethylamino)ethoxy)-7-methyl-9-oxo-9H-xanthen-3-yl)-oxy)pyridin-2-yl)propanamide] | < 0.1 |
| Cc1cc(OCCN(C)C)c2oc3cc(Oc4ccc(CCC(=O)N5CCOCC5)nc4)ccc3c(=O)c2c1 [Example 24, 4-(2-(Dimethylamino)ethoxy)-2-methyl-6-((6-(3-morpholino-3-oxopropyl)pyridin-3-yl)oxy)-9H-xanthen-9-one] | < 0.1 |
| Cc1cc(OCCN(C)C)c2oc3cc(Oc4ccc(CCNC(=O)N5CCCC5)nc4)ccc3c(=O)c2c1 [Example 27, N-(2-(5-((5-(2-(Dimethylamino)ethoxy)-7-methyl-9-oxo-9H-xanthen-3-yl)oxy)pyridin-2-yl)ethyl)pyrrolidine-1-carboxamide] | < 0.1 |
| Cc1cc(OCC2CCN(C)CC2)c2oc3cc(Oc4ccccc4)ccc3c(=O)c2c1 [Example 35, 2-Methyl-4-((1-methylpiperidin-4-yl)methoxy)-6-phenoxy-9H-xanthen-9-one] | 0.1 to 1 |
| Cc1cc(OCCN2CCCCC2)c2oc3cc(Oc4ccc(CCC(=O)NC5CCCC5)nc4)ccc3c(=O)c2c1 [Example 38, N-Cyclopentyl-3-(5-((7-methyl-9-oxo-5-(2-(piperidin-1-yl)ethoxy)-9H-xanthen-3-yl)oxy)pyridin-2-yl)propanamide] | < 0.1 |
| CN(C)CCOc1cc(Cl)cc2c(=O)c3ccc(Oc4cccc(C(=O)Nc5ccccc5)c4)cc3oc12 [Example 40, 3-({7-Chloro-5-[2-(dimethylamino)ethoxy]-9-oxo-9H-xanthen-3-yl}oxy)-N-phenylbenzamide] | < 0.1 |
| CN(C)CCOc1ccc2oc3cc(Oc4ccc(CCC(=O)NC5CCCC5)nc4)ccc3c(=O)c2c1 [Example 44, N-Cyclopentyl-3-(5-((7-(2-(dimethylamino)ethoxy)-9-oxo-9H-xanthen-3-yl)oxy)-pyridin-2-yl)propanamide] | < 0.1 |
| COc1cc(OCCN(C)C)cc2c(=O)c3ccc(Oc4ccc(CCC(=O)NC5CCCC5)nc4)cc3oc12 [Example 46, N-Cyclopentyl-3-(5-((7-(2-(dimethylamino)ethoxy)-5-methoxy-9-oxo-9H-xanthen-3-yl)oxy)pyridin-2-yl)propanamide] | < 0.1 |
| CN(C)CCOc1ccc2c(=O)c3ccc(Oc4ccc(CCC(=O)NC5CCCC5)nc4)cc3oc2c1 [Example 47, N-Cyclopentyl-3-(5-((6-(2-(dimethylamino)ethoxy)-9-oxo-9H-xanthen-3-yl)oxy)pyridine-2-yl)propanamide] | < 0.1 |
| Cc1cc(OCCN(C)C)c2sc3cc(Oc4cccc(C(=O)Nc5ccccc5)c4)ccc3c(=O)c2c1 [Example 49, 3-((5-(2-(Dimethylamino)ethoxy)-7-methyl-9-oxo-9H-thioxanthen-3-yl)oxy)-N-phenylbenzamide] | < 0.1 |
| Cc1cc(OCCN(C)C)c2sc3cc(Oc4ccc(CCC(=O)NC5CCCC5)nc4)ccc3c(=O)c2c1 [Example 51, N-Cyclopentyl-3-(5-((5-(2-(dimethylamino)ethoxy)-7-methyl-9-oxo-9H-thioxanthen-3-yl)oxy)pyridin-2-yl)propanamide] | < 0.1 |
| Cc1cc(OCCN(C)C)c2oc3cc(Oc4ccc(CCC(=O)N5CCN(C)CC5)nc4)ccc3c(=O)c2c1 [Example 54, 4-(2-(Dimethylamino)ethoxy)-2-methyl-6-((6-(3-(4-methylpiperazin-1-yl)-3-oxopropyl)pyridin-3-yl)oxy)-9H-xanthen-9-one] | < 0.1 |
| CCN(CC)CCOc1cc(C)cc2c(=O)c3ccc(Oc4ccc(CCC(=O)NC5CCCC5)nc4)cc3oc12 [Example 55, N-Cyclopentyl-3-(5-((5-(2-(diethylamino)ethoxy)-7-methyl-9-oxo-9H-xanthen-3-yl)oxy)pyridin-2-yl)propanamide] | < 0.1 |
| Cc1cc(OCCN2CCOCC2)c2oc3cc(Oc4ccc(CCC(=O)NC5CCCC5)nc4)ccc3c(=O)c2c1 [Example 56, N-Cyclopentyl-3-[5-({7-methyl-5-[2-(4-morpholinyl)ethoxy]-9-oxo-9H-xanthen-3-yl}oxy)-2-pyridinyl]propanamide] | < 0.1 |
| Cc1cc(OCCN(C(C)C)C(C)C)c2oc3cc(Oc4ccc(CCC(=O)NC5CCCC5)nc4)ccc3c(=O)c2c1 [Example 57, N-Cyclopentyl-3-[5-({5-[2-(diisopropylamino)ethoxy]-7-methyl-9-oxo-9H-xanthen-3-yl}oxy)-2-pyridinyl]propanamide] | < 0.1 |
| Cc1cc(OC2CCCN(C)C2)c2oc3cc(Oc4ccc(CCC(=O)NC5CCCC5)nc4)ccc3c(=O)c2c1 (centres unmarked) [Example 60, N-Cyclopentyl-3-(5-((7-methyl-5-((1-methylpiperidin-3-yl)oxy)-9-oxo-9H-xanthen-3-yl)oxy)pyridin-2-yl)propanamide] | < 0.1 |
| Cc1cc(OCCCN(C)C)c2oc3cc(Oc4ccc(CCC(=O)NC5CCCC5)nc4)ccc3c(=O)c2c1 [Example 63, N-Cyclopentyl-3-(5-((5-(3-(dimethylamino)propoxy)-7-methyl-9-oxo-9H-xanthen-3-yl)oxy)pyridin-2-yl)propanamide] | < 0.1 |
